Legend:
metal-free Aβ1-40 = settings: read-out: Kd relative to Aβ monomer; absence of metal ions; cited from earlier work
Aβ1-40 = experiment: nESI-IM-MS neuropeptide screen for binding with Aβ1-40; settings: for Complex formation with Aβ1-40 detected by nESI-IM-MS: 20 μM Aβ1-40, one equivalent of neuropeptide, pH 6.9, 1 h on ice; for Aβ complexes detected by IM-MS: neuropeptide added in large excess in solution
hippocampal neurons = settings: μM concentrations; cited from earlier work

| Substance | Kd (metal-free Aβ1-40) [µM] | Complex formation with Aβ1-40 detected by nESI-IM-MS (Aβ1-40) | Aβ complexes detected by IM-MS (Aβ1-40) | Inhibition of Aβ-induced neurotoxicity (hippocampal neurons) |
| --- | --- | --- | --- | --- |
| (–)-epigallocatechin-3-gallate [EGCG] | ~60 |  |  |  |
| Somatostatin 14 |  | not evident | No Aβ complexes were detected |  |
| galanin |  | detected |  |  |
| neurotensin |  | not evident | No Aβ complexes were detected |  |
| physalaemin [reference compound] |  |  |  | inhibitors of Aβ-induced neurotoxicity |
| substance P |  | not evident | No Aβ complexes were detected | inhibitors of Aβ-induced neurotoxicity |
